In US20250375454A1, “METHODS FOR TREATING HEPATOCELLULAR CARCINOMA” (THE HONG KONG POLYTECHNIC UNIVERSITY, priority 2024, published 2025):
Entries after “also recorded” stand apart in the source; their conditions may differ.

What was measured:
Huh7 cells = test: MTT cytotoxicity assay, Huh7; type: cell-based; conditions: for cytotoxicity (cell viability): Huh7, ZAK-I-57 24 h, ZAK-I-64 and ZAK-I-68 48 h
Method: (§1) Huh7 and PLC/PRF/5 (CRL-8024™) cells were purchased from Thermo Fisher Scientific and the ATCC, respectively. MIHA was kindly provided by Dr. J. R. Chowdhury, Albert Einstein College of Medicine, New York. The cell lines were cultured in Dulbecco's modified Eagle medium (DMEM, Gibco, MA, USA) supplemented with 10% fetal bovine serum (FBS, BI, MA, USA) and 1× penicillin-streptomycin solution (Solarbio) at 37° C. in a humid, 5% CO2 atmosphere.
(§2) Huh7 and PLC/PRF/5 cells at a density of 5×10^3 cells/well were cultured in 96-well plates and incubated at 37° C. in 5% CO2. Both cell lines were treated with different concentrations of benzoxazinone derivatives (ZAK-I-57, ZAK-I-64, and ZAK-I-68). Both cell lines were incubated with ZAK-I-57 for 24 h and for 48 h with ZAK-I-64 and ZAK-I-68. MTT (3-[4,5-dimethylthiazol-2-yl]-2,5-diphenyltetrazolium bromide) solution was then added to each well and incubated for 3 h in a CO2 atmosphere at 37° C. Insoluble formazan crystals were dissolved by adding 100 μL of dimethyl sulfoxide (DMSO) to each well, followed by orbital agitation for 10 min. A minimum of three biological replicates were analyzed using a plate reader to determine IC50. The same experiment was performed with MIHA hepatocyte cells to evaluate the selectivity cytotoxicity of ZAK-I-57.

PLC/PRF/5 cells = test: MTT cytotoxicity assay, PLC/PRF/5; type: cell-based; conditions: for cytotoxicity (cell viability): PLC/PRF/5, ZAK-I-57 24 h, ZAK-I-64 and ZAK-I-68 48 h
Method: as §1, §2

[1] = MTT cytotoxicity assay, MIHA normal hepatocytes; type: cell-based; conditions: human, MIHA normal hepatocyte cells, all concentrations, read-out: cell viability
Method: as §1, §2

MIHA cells = test: MTT cytotoxicity assay, MIHA normal hepatocytes; type: cell-based; conditions: Hepatocyte
Method: as §1, §2

EGFR = test: Western blot of EGFR expression in Huh7 cells; type: cell-based
Method: (§3) The Huh7 cells and tumor tissues were lysed on ice using the lysis buffer. Protein concentration was quantified using Bradford assay (Bio-Rad, Hercules, CA, USA). Equivalent amounts of protein (25-50 μg) were loaded onto 10% sodium dodecyl sulfate-polyacrylamide gel electrophoresis (SDS-PAGE) and transferred to polyvinylidene fluoride (PVDF) membranes. Membranes were blocked with 5% non-fat milk in Tris-buffered saline Tween 20 (TBST) for an hour. The blots were incubated with primary antibodies (EGFR (4267S, Cell signaling technology, MA, USA), c-Myc (5605S, Cell signaling technology, MA, USA), Bax (2772S, Cell signaling technology, MA, USA), Bcl-2 (sc-7382, Santa Cruze, TX, USA), ERBB2 (2165S, Cell signaling technology, MA, USA), and α-tubulin (62204, Invitrogen, MA, USA), 1:1000) at 4° C. overnight. Subsequently, the membranes were washed thrice (15 min each) with TBST solution and incubated for 1 h with secondary horseradish peroxidase-conjugated antibodies (NA934 and NA931, Cytiva, MA, USA, 1:5000). Blots were then detected using an ECL kit and photographed using a ChemiDoc Imaging System (Bio-Rad, MA, USA). The bands were quantified using the ImageJ software (NIH, USA). The intensities of the bands for each protein sample were normalized to those of α-tubulin (internal standard protein). Quantitative data are presented as a fold change of untreated control.

c-Myc = test: Western blot of c-Myc expression in Huh7 cells; type: cell-based
Method: as §3

ERBB2 = test: Western blot of ERBB2 expression in Huh7 cells; type: cell-based
Method: as §3

[2] = tested on: PLC/PRF/5 tumor-bearing mice; test: PLC/PRF/5 tumor-bearing mouse model; type: in vivo; conditions: for tumor cellularity (H&E staining) / gross anatomical examination of vital organs / histopathology of vital organs (H&E) / body weight: sorafenib 30 mg/kg; for tumor cellularity (H&E staining): vs vehicle control; for gross anatomical examination of vital organs / histopathology of vital organs (H&E): heart, liver, spleen, lung, kidney; for body weight: oral gavage daily, 20 days
Method: (§4) Male BALB/c nude mice (6-8 weeks old) were obtained from the Centralized Animal Facilities at the Hong Kong Polytechnic University. All animals were bred and housed under specific pathogen-free conditions, with access to sterile food and water. Environmental conditions were strictly controlled, with temperature maintained at 23±2° C., relative humidity between 30%-70%, and a 12-hour light/dark cycle. Mice were group-housed in accordance with institutional guidelines for recommended stocking density. The animal experiments were conducted according to institutional guidelines, and the experimental procedures were approved by the PolyU Animal Experimentation Ethics Committee (Ref. No. 19-20/57-ABCT-R-STUDENT).
PLC/PRF/5 cells (5×10^5) were suspended in 100 μL PBS with Matrigel (1:1 ratio) and injected into the right back of nude mice. Small tumors (<70 mm^3) were formed two weeks after cell inoculation. Mice were then randomized into the vehicle control group, ZAK-I-57 treated groups (15 mg/kg and 30 mg/kg), or sorafenib (30 mg/kg) groups. Mice were administered 200 μL of vehicle water and drugs by oral gavage daily for three weeks. Tumor size was measured twice a week, and tumor volumes were calculated using the formula [(length×width×depth)/2 mm^3] while each mouse was weighed. At the end of the experiment, the mice were sacrificed, and the tumors and organs were collected for further experiments.
as §3
(§5) Tumors were fixed in 4% formalin, embedded in paraffin, and sectioned at […] thickness for IHC staining. Ki-67 primary antibody (ab16667, Abcam, MA, USA) and anti-mouse IgG recombinant secondary antibody (7056S, Cell Signaling Technology, MA, USA) were used for IHC staining. Hemotoxin (Invitrogen, MA, USA) was used to stain nuclei. The number of positively stained cells in Ki-67-stained slides was evaluated using ImageJ software (NIH, MD, USA).
(§6) H&E staining was performed on histological sections of organs (heart, spleen, kidney, liver, and lung) to examine the toxicity of ZAK-I-57 in PLC/PRF/5 tumor-bearing and PDTX model mice. Briefly, the histological slides were deparaffinized using 100% xylene (v/v). The slides were then washed several times with ethanol solutions of various concentrations (70-100%, v/v) and immersed in hematoxylin for 5 min, followed by a quick dip in acidic alcohol. Next, the slides were immersed in Scott's tap water for 3 min and in 1% eosin for 30 s. Finally, the slides were dehydrated using ethanol solutions of various concentrations (70%-100%, v/v) and 100% xylene (v/v) and mounted using a mounting medium.

HCC PDTX mouse model = test: HCC patient-derived tumor xenograft (PDTX #1) mouse model; type: in vivo, mice; conditions: for body weight / tumor cellularity (H&E staining) / gross anatomical examination of vital organs / histopathology of vital organs (H&E): ZAK-I-57 15 and 30 mg/kg, sorafenib 30 mg/kg; for gross anatomical examination of vital organs / histopathology of vital organs (H&E): heart, liver, spleen, lung, kidney
Method: as §4
The procedure for the establishment of PDTX #1 was previously described. Tumor cells from PDTX #1 was inoculated subcutaneously on the back of nude mice. When the tumors reached approximately 1,000 mm^3, mice with the first generation of xenografts (P1) were sacrificed, and the xenografts were isolated and expanded for the second generation (P2). When P2 xenografts reached an average volume of 70 mm^3, mice were subjected to ZAK-I-57 and sorafenib treatment. The development of PDTX was approved by the Institutional Review Board of the University of Hong Kong/Hospital Authority Hong Kong West Cluster (UW 17-056) and informed consents were obtained from patients.
as §3, §5, §6

[3] = ZAK-I-57 15 and 30 mg/kg, vs vehicle control and sorafenib 30 mg/kg

## O=c1oc(-c2ccc3ccccc3c2)nc2cc([N+](=O)[O-])ccc12 [ZAK-I-57, 2-(naphthalen-2-yl)-7-nitro-4H-3,1-benzoxazin-4-one]
Huh7 cells; HCC cells (Huh7)
  IC50 against HCC cells, compared with sorafenib and artesunate: lower than sorafenib and artesunate
Huh7 cells
  cytotoxicity (cell viability): concentration-dependent increase in cytotoxicity
PLC/PRF/5 cells; HCC cells (PLC/PRF/5)
  IC50 against HCC cells, compared with sorafenib and artesunate: lower than sorafenib and artesunate
PLC/PRF/5 cells
  cytotoxicity (cell viability): concentration-dependent increase in cytotoxicity
[1]; 24 h
  viability at 24 h: > 90%
[1]; 48 h
  viability at 48 h: > 90%
MIHA cells; 24 h
  IC50: > 100 µM
MIHA cells; 48 h
  IC50: > 100 µM
MIHA cells; time not stated
  IC50: > 100 µM
EGFR; Huh7, 48 h treatment
  EGFR expression: significant downregulation
c-Myc; Huh7, 48 h treatment
  c-Myc expression: significant downregulation
ERBB2; Huh7, 48 h treatment
  ERBB2 expression: significant downregulation
[2]; 30 mg/kg
  Ki-67 suppression compared with sorafenib: significantly greater Ki-67 suppression than sorafenib
  tumor cell density and necrosis (H&E staining): substantial decrease in cell density and necrosis
  tumor volume reduction compared with sorafenib: outperforming sorafenib
  tumor weight reduction compared with sorafenib: outperforming sorafenib
[2]; 30 mg/kg, vs control
  Bax expression in tumor (western blot): increase in the expression
  Bcl-2 expression in tumor (western blot): significantly attenuated
  EGFR expression in tumor (western blot): significantly attenuated
  c-Myc expression in tumor (western blot): significantly attenuated
[2]; 15 and 30 mg/kg
  Ki-67 expression in tumor (IHC): inhibition of Ki-67 expression
  tumor growth inhibition: significantly inhibited tumor growth
[2]; ZAK-I-57 15 and 30 mg/kg
  tumor cellularity (H&E staining): marked reduction in tumor cellularity
  gross anatomical examination of vital organs: maintained tissue morphology comparable to the vehicle control
  histopathology of vital organs (H&E): no histological abnormalities were observed
  body weight: no significant changes
[2]; [3]
  tumor volume: marked reduction
  tumor weight: marked reduction
HCC PDTX mouse model; 15 mg/kg and 30 mg/kg, vs vehicle control
  percentage of tumor growth: markedly diminished
HCC PDTX mouse model; 30 mg/kg
  Bax expression in tumor (western blot): significantly upregulating
  Bcl-2 expression in tumor (western blot): downregulating
  EGFR expression in tumor (western blot): downregulated
  Ki-67 suppression compared with sorafenib: significantly greater Ki-67 suppression than sorafenib
  c-Myc expression in tumor (western blot): downregulated
  tumor cell density and necrosis (H&E staining): substantial decrease in cell density and necrosis
  tumor volume reduction compared with sorafenib: outperforming sorafenib
  tumor weight: significant reduction; also recorded: outperforming sorafenib
HCC PDTX mouse model; 15 and 30 mg/kg
  Ki-67 expression in tumor (IHC): inhibition of Ki-67 expression
  tumor progression (tumor volume): significantly inhibited tumor progression in a dose-dependent manner
HCC PDTX mouse model
  body weight: no significant difference
  gross anatomical examination of vital organs: maintained tissue morphology comparable to the vehicle control
  histopathology of vital organs (H&E): no histological abnormalities were observed
HCC PDTX mouse model; vs vehicle control
  tumor cellularity (H&E staining): marked reduction in tumor cellularity

## Cc1ccccc1-c1nc2cc([N+](=O)[O-])ccc2c(=O)o1 [ZAK-I-64, 2-(2-methylphenyl)-7-nitro-4H-3,1-benzoxazin-4-one]
Huh7 cells
  cytotoxicity (cell viability): concentration-dependent increase in cytotoxicity
PLC/PRF/5 cells
  cytotoxicity (cell viability): concentration-dependent increase in cytotoxicity
EGFR; Huh7, 48 h treatment
  EGFR expression: no appreciable effect
EGFR; Huh7, 72 h treatment
  EGFR expression: significant downregulation
c-Myc; Huh7, 48 h treatment
  c-Myc expression: no appreciable effect
c-Myc; Huh7, 72 h treatment
  c-Myc expression: significant downregulation
ERBB2; Huh7, 48 h treatment
  ERBB2 expression: no appreciable effect
ERBB2; Huh7, 72 h treatment
  ERBB2 expression: significant downregulation

## O=c1oc(-c2ccc(O)cc2)nc2cc([N+](=O)[O-])ccc12 [ZAK-I-68, 2-(4-hydroxyphenyl)-7-nitro-4H-3,1-benzoxazin-4-one]
Huh7 cells
  cytotoxicity (cell viability): concentration-dependent increase in cytotoxicity
PLC/PRF/5 cells
  cytotoxicity (cell viability): concentration-dependent increase in cytotoxicity
EGFR; Huh7, 48 h treatment
  EGFR expression: no appreciable effect
EGFR; Huh7, 72 h treatment
  EGFR expression: significant downregulation
c-Myc; Huh7, 48 h treatment
  c-Myc expression: no appreciable effect
c-Myc; Huh7, 72 h treatment
  c-Myc expression: significant downregulation
ERBB2; Huh7, 48 h treatment
  ERBB2 expression: no appreciable effect
ERBB2; Huh7, 72 h treatment
  ERBB2 expression: significant downregulation

## CNC(=O)c1cc(Oc2ccc(NC(=O)Nc3ccc(Cl)c(C(F)(F)F)c3)cc2)ccn1 [sorafenib, reference compound]
[2]; ZAK-I-57 15 and 30 mg/kg
  tumor cellularity (H&E staining): marked reduction in tumor cellularity
  gross anatomical examination of vital organs: maintained tissue morphology comparable to the vehicle control
  histopathology of vital organs (H&E): absence of significant pathological changes
  body weight: only slight variation
HCC PDTX mouse model
  body weight: Slight variations
  gross anatomical examination of vital organs: maintained tissue morphology comparable to the vehicle control
  histopathology of vital organs (H&E): absence of significant pathological changes
HCC PDTX mouse model; vs vehicle control
  tumor cellularity (H&E staining): marked reduction in tumor cellularity
